From US20120264810A1, “COMPOSITIONS AND METHODS FOR ENHANCING CELLULAR UPTAKE AND INTRACELLULAR DELIVERY OF LIPID PARTICLES” (The University of British Columbia, priority 2009, published 2012)

Legend:
[1] = test system: GAPDH protein expression in LNCaP cells; assay: GAPDH siRNA-LN knockdown in LNCaP cells; assay type: cell-based, human; details: data not shown
Procedure: FIG. 5: Raw264.7 cells were treated for 24 hours with siRNACy3 encapsulated in DLinDMA LNs in the presence or absence of 5% CQ-lipid. A lipid label, SPDiO, was incorporated into the LN to monitor uptake. LN uptake was assessed by (A) SPDiO fluorescence and distribution of siRNA was assessed by (B) Cy3 fluorescence using the Cellomics ArrayScan VTI. (C) Raw264.7 cells were incubated with the same LN formulations as in (B) for 24 hours at 10 μg/mL siRNACy3. siRNACy3 distribution was examined by confocal microscopy. (D) GAPDH siRNA was formulated into LN particles comprising of 40% DLinDMA with 0% CQ-lipid or 40% DLinDMA with 5% CQ-lipid. Raw264.7 cells were treated with 5, 10 and 20 μg/mL of siRNA for 48 and 72 hours. GAPDH protein expression was assessed by western blotting against anti-GAPDH and anti-actin. (E) LNCaP cells were treated accordingly as in (D).
Perhaps most importantly, we wanted to determine whether the enhanced cytosolic distribution of siRNACy3 observed with the CQ-lipid correlated to enhanced gene knockdown. Glyceraldehyde 3-phosphate dehydrogenase (GAPDH) is an ubiquitously expressed cytosolic protein and therefore knockdown efficiency of encapsulated siRNA can be tested in different cell lines (Barber et al., 2005). Raw264.7 cells were treated with LN of varying concentration of GAPDH siRNA for 24, 48 and 72 hours. Total protein was isolated and analyzed for GAPDH levels by immunoblotting. […] The function of GAPDH siRNA was specific since actin expression was unaltered (FIG. 5D). To confirm the function of the CQ-lipid in the LN-siRNA-mediated gene knockdown, GAPDH silencing was also assessed in LNCaP cells (FIG. 5E).

[2] = test system: HeLa cells; assay: LNP uptake in HeLa cells (SPDiO fluorescence, Cellomics / confocal); assay type: cell-based, human; details: 30 nM ouabain, 24 hrs, confocal quantification
Procedure: All cell lines were seeded at 5000 to 20,000 cells/well of 96-well ViewPlate (PerkinElmer, Shelton, Conn., USA) in 100 μl of medium and were allowed to grow overnight. Fresh medium containing 5 or 10 μg/ml of siRNA encapsulated in LNP was added the next day. Small molecules were either added manually or pinned from 1000-fold stocks in DMSO using a pinning robot equipped with 0.4 mm pins (BioRobotics, Cambridge, UK). Cells were incubated for 24 h. Cells were then washed once in PBSCM (1×PBS containing […] CaCl2), fixed in 3% paraformaldehyde containing Hoescht's stain for 15 min, washed once in PBSCM and stored in 100 μl of PBSCM.
Plates were imaged using a Cellomics Arrayscan VTI HCS Reader (Thermo Scientific, Pittsburgh, Pa., USA). Images were acquired using a 20× PlanFluor objective and a XF93 filter set. Object identification and image analysis were performed using the Cellomics Compartmental Analysis algorithm. Cellular SPDiO and siRNA-Cy3 fluorescence intensities were measured for a minimum of 400 cells and the average pixel intensity was examined. For confocal microscopy, cells grown on glass coverslips were washed once in 1×PBS, fixed in 3% paraformaldehyde containing Hoechst's stain for 15 min, washed again and mounted on slides. Images were captured on an Olympus FV1000 (Olympus, Center Valley, Pa., USA) laser scanning microscope and cellular SPDiO fluorescence intensity was analyzed using ImageJ (NIH, http://rsb.info.nih.gov/ij/).

[3] = test system: GAPDH expression in HeLa cells; assay: siGAPDH-LNP knockdown by immunoblotting in HeLa cells; assay type: cell-based, human
Procedure: HeLa cells were plated in twelve-well plates for indicated times. They were then washed in PBS and extracted in RIPA buffer (1% NP-40 and 0.5% Deoxycholic in 1×PBS) supplemented with protease inhibitor tablets (Roche Diagnostics). Total protein quantified by the Bradford Assay was analyzed by immunoblotting using antibodies to GAPDH, β-actin (Abcam, Cambridge, Mass.) or ATP1A1 ((Millipore, Billerica, Mass.). Antigen-antibody complexes in immunoblots were detected using Millipore Immobilon Western Chemiluminescent HRP Substrate (Millipore, Billerica, Mass.).
Knockdown effect of our LNP systems in the presence or absence of ouabain was also examined (FIG. 9B). GAPDH was chosen as a target gene since it is ubiquitously expressed at high levels in all cell types. siGAPDH or negative control siScramble was encapsulated in our LNP systems and incubated with cells for 24 hrs in the presence or absence of ouabain. Cells were further incubated in plain medium for 48 hrs before protein expression was analyzed. We observed that cells incubated continuously with ouabain for longer than 24 hrs were unhealthy (data not shown). […] It is noteworthy that LNP encapsulating siGAPDH or siScramble contained 1 mol % of PEG-s-DMG. […]

[4] = target: human α1-isoform of Na+/K+-ATPase (Homo sapiens, UniProt P05023); details: cited from earlier work
[5] = target: rodent α1-isoform of Na+/K+-ATPase (Rattus norvegicus, UniProt P06685); details: cited from earlier work

With `C[C@@H]1O[C@@H](O[C@H]2C[C@@H](O)[C@]3(CO)[C@H]4[C@H](O)C[C@]5(C)[C@@H](C6=CC(=O)OC6)CC[C@]5(O)[C@@H]4CC[C@]3(O)C2)[C@H](O)[C@H](O)[C@H]1O` [ouabain] as the compound, how does the “GAPDH knockdown with ouabain” value [1] read?
The value was “enhanced GAPDH knockdown”.

What about the “cellular SPDiO fluorescence (LNP content) relative to untreated cells” value [2] of the same compound?
The value was 2.5 times.

And the “cell health on continuous incubation” value ([3]; incubated continuously with ouabain for longer than 24 hrs (data not shown))?
The value was “unhealthy”.

And the “Expression of GAPDH” value ([3]; siGAPDH-LNP 10 ug/ml with 30 nM ouabain 24 h, then 48 hrs fresh medium)?
The value was “substantially reduced”.

And the sensitivity to ouabain [4]?
Its sensitivity to ouabain is “highly sensitive”.

And the “sensitivity to ouabain, less than human α1-isoform” value [5]?
Its value is 1000 fold.
